Measurements published in patent EP1218012B1, “USE OF ALPROSTADIL (PROSTAGLANDIN E1) FOR PRODUCING A MEDICAMENT FOR ANGIONEOGENESIS” (Mehrabi, Mohammad Reza, priority 1999, dated 2001).

Key:
[1] = system: Patienten mit dilatativer CMP; assay: Fibrosis degree and heart muscle fraction (Sirius red staining) in explanted hearts; format: in vivo; settings: patients with dilated CMP
Source text: Die […] wurde getrennt im Subepicardium, Myocardium und dem Subendocardium bestimmt. Die Bestimmung […] 1,mm^2 wurde getrennt anhand von anti-CD34, von Willebrand-Faktor (vwf), vascular-endothelial-growth-factor (VEGF) , anti-Ki 67 (MIB 1) und Sirius Rot, immunhistochemisch […]. Die Bestimmung des Fibrosegrads und des Herzmuskelanteils bei Alprostadil (PGE 1)-behandelten Patienten (Fig.5) gegenüber der Kontrollgruppe zeigte, dass die Alprostadil (PGE1)- Infusionstherapie den Fibrosegrad bei […] CMP […] (15,35 ± 10,32% gegenüber 6,89 ± 3,59%, p <0,05, bei einem vergleichbaren Herzmuskelanteil (72,69 ± 5,25% gegenüber 68,75 ± 6,23%).

Tierversuche = settings: infused directly into hepatic veins, treated group; cited from earlier work
MIB-1 (anti-Ki67) = MIB-1 (anti-Ki67) positive cells in explanted hearts (proliferation marker); format: in vivo, Patienten
Source text: Um die Frage zu beantworten, ob nun die Alprostadil (PGE1)-Infusionstherapie […] HTX die […] von Patienten mit vorangegangener Alprostadil (PGE 1)-Infusionstherapie und von Patienten ohne alprostadil (PGE 1)-Therapie immunhistochemisch untersucht und die […]. Jedes […] Herz wurde in drei gleich große Stücke, nämlich in Spitze, mittleren und […]. Die […] transmural durch den […] immunohistochemische Analysen wurde sofort […] in Formaldehyd nach der üblichen Methode konserviert. Die […] wurde getrennt im Subepicardium, Myocardium und dem Subendocardium bestimmt. Die Bestimmung […] 1,mm^2 wurde getrennt anhand von anti-CD34, von Willebrand-Faktor (vwf), vascular-endothelial-growth-factor (VEGF) , anti-Ki 67 (MIB 1) und Sirius Rot, immunhistochemisch […]. MIB-1 (anti-Ki67), ist ein Antikörper, der nur […], die nicht in der GO-Phase des Zellzyklus sind und wird üblicher Weise als Mitose- oder Proliferationsmarker eingesetzt. Er zeigt […] Reaktion bei mitotischen Zellen. Bei der Gruppe der Patienten mit Alprostadil(PGE 1)-Infusionstherapie war die Anzahl der MIB-1 positiven Zellen (Fig.3) in allen […] des Herzmuskels deutlich höher verglichen mit der Kontrollgruppe: (Subepicardium: 20,22 ± 4,87 pro mm^2 gegenüber 8,11 ± 2,67 pro mm^2, p <0,0001; Myocardium: 15,44 ± 4,64 pro mm^2 gegenüber 5,78 ± 2,11 pro mm^2, p <0,0001; Subendocardium: 17,84 ± 4,23 pro mm^2 gegenüber 6,89 ± 2,21 pro mm2). Die Ergebnisse sind auch in Fig.6C, 8G und 8H dargestellt.

[2] = system: Patienten mit chronischer Herzinsuffizien; settings: compared with the dobutamine-treated group; cited from earlier work
Patienten mit CMP [3] = assay: Clinical infusion therapy study in CMP patients awaiting heart transplantation (haemodynamics, clinical state, maximum tolerated dose); format: in vivo
Source text: Patienten mit CMP wurden für eine Herztranslation (HTX) angemeldet und medikamentös mit ACE-Hemmern, β-Blocker, Diuretika und Digitalis behandelt.
In einer vorangegangenen Studie erhielten mehrere Patienten mit Kardiomyopathie, darunter 9 Patienten mit dilatativer CMP vor einer HTX zusätzlich eine Alprostadil (PGE 1)-Infusionstherapie.
Die Einschlusskriterien für die Alprostadil (PGE 1)-Studie waren: • a. Patienten waren in ihrer täglichen Aktivität schwerwiegend eingeschränkt, obwohl sie eine maximale oralmedikamentöse Therapie mit ACE-Hemmer (Angiotensin-Converting-Enzym-Antagonisten), Diuretika und Digitalis bekamen. • b. Die Hämodynamik der Patienten zeigte einen niedrigen Herz-Index (< 2,5 L/min/m2) und einen höheren PCWP (pulmonory capillary wedge pressure) > 20 mm HG). • c. CMP-Patienten, die einen erhöhten peripheren Gefäßwiderstand aufweisen.
Die Infusionstherapie erfolgte unter laufender Messung der hämodynamischen Parameter. […] In dieser klinisch-experimentellen Studie wurde die Alprostadil (PGE1)-Infusionstherapie bei Patienten im Endstadium der Herizinsuffizienz im Sinne einer adjuvanten Therapie bis zur HTX verwendet.
Die Alprostadil (PGE1)-Infusionen erfolgten über einen zentralen Rechtsherzkatheter (Hickman-Katheter) mit einer anfänglichen Dosis von 2,5 ng/kg/min, die dann bis zur maximal tolerierten Dosis (MTD) gesteigert wurde. MTD war die Dosis, bei der eine der folgenden Nebenwirkungen auftraten: Muskelschmerzen, Knochenschmerzen, Blutdruckabfall, Übelkeit, Erbrechen, Durchfall, Kopfschmerzen oder andere Nebvenwirkungen. Unter der MTD (29 ± 1 ng/kg/min) wurden die hämodynamischen Parameter dokumntiert. Die MTD wurde in den folgenden 12 Stunden halbiert und nach der Stabilisierung der Hämodynamik wurde die Therapie mit einer tragbaren Pumpe zu Hause fortgesetzt.

CD 34 = assay: Anti-CD34 reactive endothelium in explanted hearts (immunohistochemistry); format: in vivo, Patienten
Source text: Um die Frage zu beantworten, ob nun die Alprostadil (PGE1)-Infusionstherapie […] HTX die […] von Patienten mit vorangegangener Alprostadil (PGE 1)-Infusionstherapie und von Patienten ohne alprostadil (PGE 1)-Therapie immunhistochemisch untersucht und die […]. Jedes […] Herz wurde in drei gleich große Stücke, nämlich in Spitze, mittleren und […]. Die […] transmural durch den […] immunohistochemische Analysen wurde sofort […] in Formaldehyd nach der üblichen Methode konserviert. Die […] wurde getrennt im Subepicardium, Myocardium und dem Subendocardium bestimmt. Die Bestimmung […] 1,mm^2 wurde getrennt anhand von anti-CD34, von Willebrand-Faktor (vwf), vascular-endothelial-growth-factor (VEGF) , anti-Ki 67 (MIB 1) und Sirius Rot, immunhistochemisch […]. CD 34 wird von allen Endothelzellen im normalen Gewebe exprimiert. CD 34 wird auch zum Nachweis von Endothel bzw. -zellen benutzt. Patienten nach einer Alprostadil (PGE […] Endothel (Fig.1) auf als die Kontrollgruppe (Subepicardium: 599,22 ± 107,17 mm^2 gegenüber 322,89 ± 160,64 mm^2-Zellen, p <0,001; Myocardium: 482,11 ± 79,86 mm^2 vs. 227,22 ± 49,30 mm^2 , p<0.0001; Subendocardium: 482,11 ± 79,86 mm^2 gegenüber 227,22 ± 49,30 mm^2, p <0,0001); Subendocardium: 551,67 ± 107.74 mm^2 gegenüber 308,56 ± 193.86 mm^2, p < 0,01). Die Ergebnisse sind auch in Fig.6A, 8A und 8B dargestellt.

Patienten mit CMP [4] = assay: Capillary density in transmural sections of explanted hearts (immunohistochemistry); format: in vivo; settings: for Kapillardichte: explanted hearts after infusion therapy
Source text: Um die Frage zu beantworten, ob nun die Alprostadil (PGE1)-Infusionstherapie […] HTX die […] von Patienten mit vorangegangener Alprostadil (PGE 1)-Infusionstherapie und von Patienten ohne alprostadil (PGE 1)-Therapie immunhistochemisch untersucht und die […]. Jedes […] Herz wurde in drei gleich große Stücke, nämlich in Spitze, mittleren und […]. Die […] transmural durch den […] immunohistochemische Analysen wurde sofort […] in Formaldehyd nach der üblichen Methode konserviert. Die […] wurde getrennt im Subepicardium, Myocardium und dem Subendocardium bestimmt. Die Bestimmung […] 1,mm^2 wurde getrennt anhand von anti-CD34, von Willebrand-Faktor (vwf), vascular-endothelial-growth-factor (VEGF) , anti-Ki 67 (MIB 1) und Sirius Rot, immunhistochemisch […]. Die […] Subepicardium, Myocardium und Subendocardium von transmuralen […] wurde quantitativ bestimmt und verglichen. Patienten, die eine Alprostadil (PGE 1)- Infusionen […]. Die […] Subepicardium, Myocardium und Subendocardium von der Kontrollgruppe betrug 608,56 ± 91,32 […]), 542,44 ± 197,20 […]^2 (sEndo), und 452,22 - 101,99 […]^2 (Myo) in den drei transmuralen-[…]. Alprostadil (PGE 1)-behandelte Patienten hatten im Vergleich dazu mit 1168,11 ± 165,04 […]), 1066,00 ± 94,63 […]^2 (SEndo), und 974,56 ± 87,12 […]^2 (Myocard), ungefähr 50% […]. Untersuchung hinsichtlich spezifischer immunohistochemischer […]: […]

[5] = system: Von Willebrand Faktor (vWf); assay: Anti-vWf (factor VIII related antigen) reactive endothelium in explanted hearts (immunohistochemistry); format: in vivo, Patienten
Source text: Um die Frage zu beantworten, ob nun die Alprostadil (PGE1)-Infusionstherapie […] HTX die […] von Patienten mit vorangegangener Alprostadil (PGE 1)-Infusionstherapie und von Patienten ohne alprostadil (PGE 1)-Therapie immunhistochemisch untersucht und die […]. Jedes […] Herz wurde in drei gleich große Stücke, nämlich in Spitze, mittleren und […]. Die […] transmural durch den […] immunohistochemische Analysen wurde sofort […] in Formaldehyd nach der üblichen Methode konserviert. Die […] wurde getrennt im Subepicardium, Myocardium und dem Subendocardium bestimmt. Die Bestimmung […] 1,mm^2 wurde getrennt anhand von anti-CD34, von Willebrand-Faktor (vwf), vascular-endothelial-growth-factor (VEGF) , anti-Ki 67 (MIB 1) und Sirius Rot, immunhistochemisch […] Marker wurde Faktor VIII immunhistochemisch untersucht. Die Herzen von CMP-Patienten nach Alprostadil(PGE 1)-Infusionstherapie zeigten bedeutend […] Endothelien (Abb.2) verglichen mit der Kontrollgruppe (Subepicardium: 425,56 ± 134.17 mm^2 gegenüber 192,22 ± 77,88 mm^2-Zellen, p <0,001; Myocardium: 360,00 ± 52,31 mm^2 gegenüber 159,89 ± 61.00 mm^2 p <0,0001; Subendocardium: 408,00 ± 80,00 mm^2 gegenüber 163,89 ± 47,52 mm^2, p <0,0001). Die Ergebnisse sind auch in Fig.6B, 8C und 8D dargestellt.

VEGF = assay: VEGF-positive capillaries in explanted hearts (immunohistochemistry); format: in vivo, Patienten
Source text: Um die Frage zu beantworten, ob nun die Alprostadil (PGE1)-Infusionstherapie […] HTX die […] von Patienten mit vorangegangener Alprostadil (PGE 1)-Infusionstherapie und von Patienten ohne alprostadil (PGE 1)-Therapie immunhistochemisch untersucht und die […]. Jedes […] Herz wurde in drei gleich große Stücke, nämlich in Spitze, mittleren und […]. Die […] transmural durch den […] immunohistochemische Analysen wurde sofort […] in Formaldehyd nach der üblichen Methode konserviert. Die […] wurde getrennt im Subepicardium, Myocardium und dem Subendocardium bestimmt. Die Bestimmung […] 1,mm^2 wurde getrennt anhand von anti-CD34, von Willebrand-Faktor (vwf), vascular-endothelial-growth-factor (VEGF) , anti-Ki 67 (MIB 1) und Sirius Rot, immunhistochemisch […]. VEGF ist beschrieben als spezifischer Wachstumsfaktor für Endothelzellen. Alprostadil (PGE 1)-behandelte Patienten zeigten bedeutend mehr VEGF-positive […] als die Kontrollgruppe (Fig.4) in allen drei untersuchten Abschnittsebenen (Subepicardium: 101,2 ± 5,5/mm^2 gegenüber 38.1 ± 7,2-VEGF-positive Zellen/mm^2, p <0,0001; Myocardium 76,2 ± 4,9/mm^2 gegenüber 20,6 ± 4,9/mm^2, p <0,0001; Subendocardium: 89,1 ± 5,7/mm^2 gegenüber 27,8 ± 5,1/mm^2, p <0,0001). Die Ergebnisse sind auch in Fig.6D, 8E und 8F dargestellt.

Patienten = assay: Hypertrophy: muscle count and percent muscle fraction per mm^2; format: in vivo; settings: treated patients
Source text: In PGE1-behandelten Patienten wurden Muskelzahl/mm^2 mit prozentuellem Muskelanteil/mm^2 bestimmt und mit unbehandelten Patienten und gesunden Kontrollen verglichen. Die Ergebnisse sind in der nachfolgenden Tabelle angegeben.

[6] = system: Patienten mit akutem Leberversagen; settings: treatment begun only 10 days after onset of clinical symptoms; cited from earlier work

CCCCC[C@H](O)/C=C/[C@H]1[C@H](O)CC(=O)[C@@H]1CCCCCCC(=O)O [Alprostadil, Prostaglandin E1]
Fibrosegrad [1]: 6,89 ± 3,59%
Herzmuskelanteil [1]: 72,69 ± 5,25%
Leukozyten (serologisch) (Tierversuche): mehr Leukozyten
Anzahl der MIB-1 positiven Zellen (MIB-1 (anti-Ki67); Myocardium): 15,44 ± 4,64 pro mm^2
Anzahl der MIB-1 positiven Zellen (MIB-1 (anti-Ki67); Subendocardium): 17,84 ± 4,23 pro mm^2
Anzahl der MIB-1 positiven Zellen (MIB-1 (anti-Ki67); Subepicardium): 20,22 ± 4,87 pro mm^2
Nierenfunktion (Paraaminohippurat-Clearance, Iothalamat-Clearance) [2]: bessere Nierenwerte
hämodynamischer Effekt [2]: besseren hämodynamischen Effekt
klinischer Zustand (Patienten mit CMP [3]; end-stage heart failure, with increased ejection fraction and cardiac output, reduced NYHA stage and pulmonary circulation pressures): deutliche Verbesserung
maximal tolerierte Dosis (MTD) (Patienten mit CMP [3]; infusion via central right-heart catheter, escalated from 2,5 ng/kg/min until side effects occurred): 29 ± 1 ng/kg/min
hämodynamische Parameter im Vergleich zu den Ausgangswerten (Patienten mit CMP [3]; under infusion therapy): deutliche Verbesserung
anti-CD34 reaktives Endothel (CD 34; Myocardium): 482,11 ± 79,86 mm^2
anti-CD34 reaktives Endothel (CD 34; Subendocardium): 482,11 ± 79,86 mm^2
anti-CD34 reaktives Endothel (CD 34; Subepicardium): 599,22 ± 107,17 mm^2
Kapillardichte (Patienten mit CMP [4]; Myocardium (Myocard)): 974,56 ± 87,12 Kapillaren/mm^2
Kapillardichte (Patienten mit CMP [4]; Subendocardium (SEndo)): 1066,00 ± 94,63 Kapillaren/mm^2
Kapillardichte (Patienten mit CMP [4]; Subepicardium (sEpi)): 1168,11 ± 165,04 Kapillaren/mm^2
mehr Kapillaren als die Kontrollgruppe (Patienten mit CMP [4]; treated patients versus control group): ~50%
anti-vWf reaktive Endothelien ([5]; Myocardium): 360,00 ± 52,31 mm^2
anti-vWf reaktive Endothelien ([5]; Subendocardium): 408,00 ± 80,00 mm^2
VEGF-positive Kapillaren/mm^2 (VEGF; Myocardium): 76,2 ± 4,9 /mm^2
VEGF-positive Kapillaren/mm^2 (VEGF; Subendocardium): 89,1 ± 5,7 /mm^2
VEGF-positive Kapillaren/mm^2 (VEGF; Subepicardium): 101,2 ± 5,5 /mm^2
% Muskelanteil/mm^2 (Patienten): 74,9 ± 3,7%
Muskelzahl/mm^2 (Patienten): 982,68 ± 141,43 /mm^2
Wirkung bei akutem Leberversagen [6]: keine Wirkung
